Consider four compounds from patent publication US11147781B2, “Methods for alleviating statin myopathy” (priority 2014, dated 2021).

In series [1] the test system is patients with statin-induced myopathy (SIM). In kind it is in vivo, human. Also on record: triglycerides: unit not given here. How it is done:
A clinical study was conducted to evaluate the effects of HMB on patients with statin-induced myopathy (SIM). A total of eighteen patients were evaluated for the study with informed written consent obtained. Of the eighteen patients, fourteen (14) ultimately qualified as having true statin myalgia and were enrolled in the study. All patients enrolled were under the care of a board certified cardiologist.
A summary of the enrolled patients and their outcomes is as follows: • 1. All 14 had type 2a or mixed hyperlipidemia. • 2. All 14 had been treated with multiple statin agents, in each case withdrawing from the statin agent due to myalgia/myopathy. • 3. Of the 14 patients enrolled, 4 had elevated CPKs (creatine phosphokinase, a biomarker for myositis/rhabdomyolysis) secondary to SIM. • 4. Five of the 14 patients had undergone prior percutaneous coronary intervention with stents. • 5. One of the 14 patients had undergone prior coronary bypass surgery. • 6. Four of the 14 patients had angiographically documented moderate coronary artery disease not requiring percutaneous coronary intervention (PCI)/coronary bypass. • 7. Four of the 18 patients were disqualified due to the following: • Patient's leg myalgia was secondary to angiographically proven peripheral vascular disease, not SIM and symptoms were consistent with this diagnosis. • Patient's unilateral leg pain was secondary to neuropathy, not SIM. • Patient complained of GI upset on combined statin+3-hydroxy 3-methybutyrate and medication was discontinued. […] All 14 qualified patients remained on combination statin (in some cases with Zetia to achieve target) plus HMB therapy after the initial duration of the study. As noted, of those who had previously discontinued statin therapy, all had been tried on multiple statin agents without success. • 9. Follow up was conducted with all patients including out-patient visits and phone conversation. • 10.
The free acid form was used in one patient who experienced major CPK elevations (900-1000 IU/L range) and disabling myalgia on statins.
For this study, patients were evaluated using multiple laboratories with variable lab normal ranges, which are included. In the patient population as a whole, the full spectrum of SIM is presented, including statin myalgia […] CPK elevation (myositis or rhabdomyolysis depending on severity), elevation of CPK without myalgia, post-statin elevation of CPK with and without pain, post-statin myalgia without CPK elevation, and, finally, statin-induced muscle weakness without myalgia. Also represented were other statin-induced side effects such as short-term memory loss and glucose intolerance.

For another series, the system named is acute rhabdomyolysis. The series is described as follows: In-patient treatment of acute rhabdomyolysis with HMB. The class given is in vivo, human. Conditions: HMB free acid (gel form) 6 g twice daily for 3 days, within 3 days. From the text: HMB administration is used to treat acute rhabdomyolysis in an in-patient setting.
Acute rhabdomyolysis is a rare but extreme and potentially life-threatening disorder that can occur in all groups in a setting of dehydration, trauma, and in younger age groups, intense exercise. […] At this time there is no known method of reversing rhabomyolysis apart from bed rest and hydration.
Protocol: measure patient's CPK; if value exceeds 10 times the upper limit of normal (200 IU/L, depending on laboratory-specific established normal range), initiate the following: • 1. Admit to ICU; • 2. Initiate IV 0.9% saline at 165 ml/hour; • 3. Initiate HMB free acid (gel form), dose 6 g twice daily for 3 days; • 4. Lab: CPK, BUN, creatinine, glucose and electrolytes every 12 hours for 3 days.

For series [2] the following is noted: free acid form versus calcium monohydrate form; cited from earlier work.
The mark [3] stands for this setting: Patient A-1, 3 months, Crestor 10 mg daily + 2 g BID.
Setting [4] is: Patient F-6, atorvastatin 40 mg + Zetia 10 mg + 2 g BID, 2-month follow-up.

Like-named read-outs stand apart in the source and are kept apart here.

Consider `CC(C)c1nc(N(C)S(C)(=O)=O)nc(-c2ccc(F)cc2)c1/C=C/[C@@H](O)C[C@@H](O)CC(=O)O` [Crestor®, rosuvastatin, reference compound], for which the CPK under statin in series [1] (human, in vivo) came to 320 IU/L.

For `CCC(C)(C)C(=O)O[C@H]1C[C@@H](C)C=C2C=C[C@H](C)[C@H](CC[C@@H]3C[C@@H](O)CC(=O)O3)[C@H]21` [simvastatin, reference compound], the “CPK under statin (severe rhabdomyolysis)” value in series [1] (human, in vivo) is 900-1000 IU/L.

Take `CC(C)(O)CC(=O)[O-].CC(C)(O)CC(=O)[O-].[Ca+2]` [calcium HMB monohydrate]: the CPK is recorded as 87 IU/L in series [1] (Patient A-1, 2 g BID, 9 days later, before HMB 242, range 26-192); 110 IU/L in series [1] (setting [3]); 173 IU/L in series [1] (Patient B-2, Vytorin 10/40 + 2 g BID, 50 days, lab normal range 44-196); 277 IU/L in series [1] (Patient D-4, Crestor 20 mg + Zetia 10 mg + 2 g BID, 37 days, before 705, range 26-192); 378 IU/L in series [1] (Patient D-4, five months later, diabetes uncontrolled); 110 IU/L in series [1] (Patient E-5, after HMB treatment 2 g BID, range 39-308). Moreover, the CPK in series [1] (Patient G-7, statin + 2 g BID, four weeks, range 29-168) is listed as 39 IU/L; in series [1] (Patient K-11, Crestor 20 mg daily + 2 g BID, 47 days, before 282 (29-168)), 191 IU/L; in series [1] (Patient L-12, two months, range 29-168), 87 IU/L; in series [1] (Patient M-13, Crestor + 2 g BID, four months, before 320, range 39-308) it was 210 IU/L; in series [1] (Patient O-15, 2 months post-enrollment, 5 days/week weight program, before 274 (30-200)), 310 IU/L. Also, the “time to complete resolution of all pain” value in series [1] (Patient A-1, 2 g BID, post-statin myositis, before re-introducing statin) is reported as 3 days. The LDL in series [1] (setting [3]) was determined as 72 mg/dL; in series [1] (Patient B-2, Vytorin 10/40 + 2 g BID, 50 days, before 168) it was 110 mg %; in series [1] (Patient D-4, Crestor 20 mg + Zetia 10 mg + 2 g BID, 37 days, before >200 mg %), 49; in series [1] (Patient F-6, atorvastatin 40 mg + Zetia 10 mg + 2 g BID, repeat), 43; in series [1] (Patient G-7, statin + 2 g BID, four weeks, reduced from 169) it was 108; in series [1] (Patient K-11, Crestor 20 mg daily + 2 g BID, 47 days, before 282), 139. The LDL in series [1] (Patient L-12, Crestor 5 mg daily + 2 g BID, two months, before 122) was 100; in series [1] (Patient M-13, Crestor + 2 g BID, four months, before 244), 114; in series [1] (Patient O-15, 2 months post-enrollment, before 30), 53. For the same compound, the symptoms result is “asymptomatic” in series [1] (setting [3]); “completely asymptomatic” in series [1] (Patient B-2, six months later, on Vytorin); “completely symptom free” in series [1] (Patient C-3, Crestor 10 mg daily + 2 g BID, three months); “free of all symptoms of myalgia and muscle weakness” in series [1] (Patient G-7, statin resumed + 2 g BID, approximately four weeks); “completely asymptomatic” in series [1] (Patient H-8, 2 g BID combination, one month); “pain-free” in series [1] (Patient K-11, exercises near-daily). The symptoms entry in series [1] (Patient L-12, two months) is recorded as “pain-free”. Besides, the myalgia entry in series [1] (Patient D-4, Crestor 20 mg + Zetia 10 mg + 2 g BID, 37 days) was “resolved except for very mild discomfort climbing stairs”; in series [1] (setting [4]), “completely resolved”; in series [1] (Patient M-13, follow-up five months after enrollment), “All myalgia had resolved”. Moreover, the bilateral calf myalgia entry in series [1] (Patient E-5, 2 g BID, post-statin myalgia) was “resolved rapidly and completely”. Also, the “short term memory loss” value in series [1] (setting [4]) was “improved”. In series [1] (Patient J-10, Lipitor 10 mg daily + 2 g BID, one month), the bilateral thigh pain entry is listed as “complete resolution of bilateral thigh pain”. In addition, the CPK reduction is 32% in series [1] (Patient K-11, 47 days) and 34% in series [1] (Patient M-13, four months). Also, the LDL reduction was 50% in series [1] (Patient K-11, 47 days) and 53% in series [1] (Patient M-13, four months). Besides, the triglycerides in series [1] (Patient L-12, Crestor 5 mg daily + 2 g BID, two months, before 261) was determined as 193. Besides, the muscle weakness entry in series [1] (Patient N-14, statin continued + 2 g BID, 13 days) is given as “symptoms of muscle weakness had resolved”. Also, the quadriceps/thigh pain result in series [1] (Patient O-15, combined statin therapy + 2 g BID, four weeks) was “complete resolution of all quadriceps/thigh pain”. In addition, the thigh pain result in series [1] (Patient P-16, simvastatin + 2 g BID, sixteen days, persistent groin stiffness) is on record as “no longer had any thigh pain”.

For `CC(C)(O)CC(=O)O` [HMB free acid], the CPK result is reported as “below 200 IU/L” in the series with acute rhabdomyolysis and 257 IU/L in series [1] (Patient D-4, free acid 2 gelcaps TID (3 g daily), after ten days, before 378). For the same compound, the bioavailability entry in series [2] was “more bioavailable”. Also, the patient-reported state result in series [1] (Patient D-4, free acid 3 g daily, ten days) is reported as “felt better”. Besides, the fasting blood glucose in series [1] (Patient D-4, free acid 3 g daily, ten days, before >200) is 100 mg %. Further, the symptoms entry in series [1] (Patient O-15, converted to free acid 1 g TID, three months post-enrollment) is “completely symptom-free”; in series [1] (free acid gel cap, one patient (D-4), improvement over calcium monohydrate form), “resolution in symptoms”. Further, in series [1] (free acid gel cap, one patient (D-4) with major CPK elevations on statins), the “change in CPK” value is reported as “significant decrease”.
